Test system: patients with prior myocardial infarction (CARE study)
Assay: CARE: association of SNPs with pravastatin treatment in cardiovascular events prevention (logistic regression, odds ratio pravastatin vs placebo by genotype; Table 8)
Format: in vivo, human
Settings: All Patients; for Total Cardiovascular Disease Events, n/total (%) / Non-fatal MI (def & prob), n/total (%) / Fatal/Non-fatal MI (def & prob), n/total (%) / Fatal/Non-fatal Atherosclerotic CV Disease, n/total (%) / Hosp. for Cardiovascular Disease, n/total (%) / Total Mortality, n/total (%): Prava
From the text: In order to identify genetic markers associated with acute coronary events (e.g. MI, stroke, unstable angina, congestive heart failure, etc.) or response to statin treatment for the prevention of coronary events, samples from the Cholesterol and Recurrent Events (CARE) study (a randomized multicentral double-blinded trial on secondary prevention of acute coronary events with pravastatin) (Sacks et al., 1991, Am. J. Cardiol. 68: 1436-1446) were genotyped. A well-documented myocardial infarction (MI) was one of the enrollment criteria for entry into the CARE study. Patients were enrolled in the CARE trial from 80 participating study centers. […] Patients were randomized to receive either 40 mg of pravastatin once daily or a matching placebo. The primary endpoint of the trial was death from coronary heart disease and the median duration of follow-up was 5.0 years (range, 4.0 to 6.2 years). […] Secondary endpoints of other related cardiovascular or metabolic disease events, and changes in clinical variables were also recorded in pravastatin-treated and placebo groups. All individuals included in the study had signed a written informed consent form and the study protocol was approved by the respective Institutional Review Boards (IRBs).
For genotyping SNPs in CARE patient samples, DNA was extracted from blood samples using conventional DNA extraction methods such as the QIA-amp kit from Qiagen. Genotypes were obtained on an ABI PRISM® 7900HT Sequence Detection PCR system (Applied Biosystems, Foster City, Calif.) by kinetic allele-specific PCR, similar to the method described by Germer et al. (Germer S., Holland M. J., Higuchi R. 2000, Genome Res. 10: 258-266).
Statistical analysis for association of SNPs with pravastatin treatment in cardiovascular events prevention (Table 8) was carried out using an overall logistic regression model that included an intercept, a parameter for the effect of a genotype containing two rare alleles versus a genotype containing no rare alleles, a parameter for the effect of a genotype containing one rare allele versus a genotype containing no rare alleles, a parameter for the effect of use of pravastatin versus the use of placebo, and parameters for the interaction effects between SNP genotypes and pravastatin use. The test of the overall model is a chi-square test with two degrees of freedom for analyses containing all three genotypes, and one degree of freedom for analyses containing two genotypes.
Effect sizes were estimated through odds ratios (pravastatin group versus placebo) for carriers of each genotype (groups of 0, 1, and 2 minor allele carriers). The effect was considered to be significant if p-value for testing whether any of the interactions between SNP genotypes and pravastatin use were <0.05. […] Odds ratios less than one indicate that the specific SNP allele has a protective effect and odds ratios greater than one indicate that the specific SNP allele has an adverse effect.

[1] = HLA-DPB1 hCV25651174, Coronary Artery Bypass or Revascularization
[2] = HLA-DPB1 hCV25651174, Fatal CHD/Definite Non-fatal MI
[3] = HLA-DPB1 hCV25651174, Fatal/Non-fatal Atherosclerotic CV Disease
[4] = HLA-DPB1 hCV25651174, Fatal/Non-fatal MI (def & prob)
[5] = HLA-DPB1 hCV25651174, Hosp. for Cardiovascular Disease
[6] = HLA-DPB1 hCV25651174, Non-fatal MI (def & prob)
[7] = HLA-DPB1 hCV25651174, Total Cardiovascular Disease Events
[8] = HLA-DPB1 hCV25651174, Total Coronary Heart Disease Events
[9] = ICAM1 hCV8726337, Fatal/Non-fatal MI (def & prob)
[10] = ICAM1 hCV8726337, Non-fatal MI (def & prob)
[11] = ICAM3 hCV25473653, Fatal/Non-fatal Atherosclerotic CV Disease
[12] = ICAM3 hCV25473653, Total Cardiovascular Disease Events
[13] = IGF2R hCV2200985, Hosp. for Cardiovascular Disease

CC[C@H](C)C(=O)O[C@H]1C[C@H](O)C=C2C=C[C@H](C)[C@H](CC[C@@H](O)C[C@@H](O)CC(=O)O)[C@H]21 [pravastatin]
Total Cardiovascular Disease Events, n/total (%) (HLA-DPB1 hCV25651174, 2 Rare Alleles, n/total 64/144): (44.4%) | Prava vs. Placebo Odds Ratio, 0 Rare Alleles [1]: 0.68 | Prava vs. Placebo Odds Ratio, 1 Rare Alleles [1]: 0.58 | Prava vs. Placebo Odds Ratio, 2 Rare Alleles [1]: 2.11 | Prava vs. Placebo Odds Ratio, 0 Rare Alleles [2]: 0.57 | Prava vs. Placebo Odds Ratio, 1 Rare Alleles [2]: 0.74 | Prava vs. Placebo Odds Ratio, 2 Rare Alleles [2]: 1.77 | Prava vs. Placebo Odds Ratio, 0 Rare Alleles [3]: 0.66 | Prava vs. Placebo Odds Ratio, 1 Rare Alleles [3]: 0.78 | Prava vs. Placebo Odds Ratio, 2 Rare Alleles [3]: 1.60 | Prava vs. Placebo Odds Ratio, 0 Rare Alleles [4]: 0.54 | Prava vs. Placebo Odds Ratio, 1 Rare Alleles [4]: 0.67 | Prava vs. Placebo Odds Ratio, 2 Rare Alleles [4]: 1.97 | Prava vs. Placebo Odds Ratio, 0 Rare Alleles [5]: 0.70 | Prava vs. Placebo Odds Ratio, 1 Rare Alleles [5]: 0.70 | Prava vs. Placebo Odds Ratio, 2 Rare Alleles [5]: 1.42 | Prava vs. Placebo Odds Ratio, 0 Rare Alleles [6]: 0.59 | Prava vs. Placebo Odds Ratio, 1 Rare Alleles [6]: 0.68 | Prava vs. Placebo Odds Ratio, 2 Rare Alleles [6]: 2.23 | Prava vs. Placebo Odds Ratio, 0 Rare Alleles [7]: 0.69 | Prava vs. Placebo Odds Ratio, 1 Rare Alleles [7]: 0.71 | Prava vs. Placebo Odds Ratio, 2 Rare Alleles [7]: 1.35 | Prava vs. Placebo Odds Ratio, 0 Rare Alleles [8]: 0.69 | Prava vs. Placebo Odds Ratio, 1 Rare Alleles [8]: 0.73 | Prava vs. Placebo Odds Ratio, 2 Rare Alleles [8]: 1.81 | Non-fatal MI (def & prob), n/total (%) (ICAM1 hCV8726337, 0 Rare Alleles, n/total 28/495): (5.7%) | Fatal/Non-fatal MI (def & prob), n/total (%) (ICAM1 hCV8726337, 0 Rare Alleles, n/total 31/495): (6.3%) | Non-fatal MI (def & prob), n/total (%) (ICAM1 hCV8726337, 1 Rare Allele, n/total 76/736): (10.3%) | Fatal/Non-fatal MI (def & prob), n/total (%) (ICAM1 hCV8726337, 1 Rare Allele, n/total 84/736): (11.4%) | Non-fatal MI (def & prob), n/total (%) (ICAM1 hCV8726337, 2 Rare Alleles, n/total 30/282): (10.6%) | Fatal/Non-fatal MI (def & prob), n/total (%) (ICAM1 hCV8726337, 2 Rare Alleles, n/total 31/282): (11.0%) | Prava vs. Placebo Odds Ratio, 0 Rare Alleles [9]: 0.39 | Prava vs. Placebo Odds Ratio, 1 Rare Alleles [9]: 0.85 | Prava vs. Placebo Odds Ratio, 2 Rare Alleles [9]: 0.77 | Prava vs. Placebo Odds Ratio, 0 Rare Alleles [10]: 0.39 | Prava vs. Placebo Odds Ratio, 1 Rare Alleles [10]: 0.83 | Prava vs. Placebo Odds Ratio, 2 Rare Alleles [10]: 0.94 | Fatal/Non-fatal Atherosclerotic CV Disease, n/total (%) (ICAM3 hCV25473653, 0 Rare Alleles, n/total 299/924): (32.4%) | Total Cardiovascular Disease Events, n/total (%) (ICAM3 hCV25473653, 0 Rare Alleles, n/total 376/924): (40.7%) | Fatal/Non-fatal Atherosclerotic CV Disease, n/total (%) (ICAM3 hCV25473653, 1 Rare Allele, n/total 191/511): (37.4%) | Total Cardiovascular Disease Events, n/total (%) (ICAM3 hCV25473653, 1 Rare Allele, n/total 230/511): (45.0%) | Fatal/Non-fatal Atherosclerotic CV Disease, n/total (%) (ICAM3 hCV25473653, 2 Rare Alleles, n/total 14/70): (20.0%) | Total Cardiovascular Disease Events, n/total (%) (ICAM3 hCV25473653, 2 Rare Alleles, n/total 19/70): (27.1%) | Prava vs. Placebo Odds Ratio, 0 Rare Alleles [11]: 0.71 | Prava vs. Placebo Odds Ratio, 1 Rare Alleles [11]: 0.97 | Prava vs. Placebo Odds Ratio, 2 Rare Alleles [11]: 0.37 | Prava vs. Placebo Odds Ratio, 0 Rare Alleles [12]: 0.71 | Prava vs. Placebo Odds Ratio, 1 Rare Alleles [12]: 0.93 | Prava vs. Placebo Odds Ratio, 2 Rare Alleles [12]: 0.37 | Hosp. for Cardiovascular Disease, n/total (%) (IGF2R hCV2200985, 0 Rare Alleles, n/total 465/1175): (39.6%) | Hosp. for Cardiovascular Disease, n/total (%) (IGF2R hCV2200985, 1 Rare Allele, n/total 137/316): (43.4%) | Hosp. for Cardiovascular Disease, n/total (%) (IGF2R hCV2200985, 2 Rare Alleles, n/total 5/24): (20.8%) | Prava vs. Placebo Odds Ratio, 0 Rare Alleles [13]: 0.75 | Prava vs. Placebo Odds Ratio, 1 Rare Alleles [13]: 0.88 | Prava vs. Placebo Odds Ratio, 2 Rare Alleles [13]: 0.12 | Total Mortality, n/total (%) (IL1A hCV9546471, 0 Rare Alleles, n/total 52/759): (6.9%) | Total Mortality, n/total (%) (IL1A hCV9546471, 1 Rare Allele, n/total 28/617): (4.5%) | Total Mortality, n/total (%) (IL1A hCV9546471, 2 Rare Alleles, n/total 4/132): (3.0%) | Prava vs. Placebo Odds Ratio, 0 Rare Alleles (IL1A hCV9546471, Total Mortality): 1.40

— patent US9932637B2, “Genetic polymorphisms associated with cardiovascular disorders and drug response, methods of detection and uses thereof” (CELERA CORPORATION, priority 2003, dated 2018)
